The record followed here is paper PMC11800159, “Insertion of a Divergent GAF-like Domain Defines a Novel Family of YcgR Homologues That Bind c-di-GMP in Leptospirales” (ACS Omega, 2025).

The assay deals with T1, YcgRLIC_11920.
T1 construct: gene LIC_11920; full-length protein, N-terminal 6x histidine tag
Kind of assay: ITC ([…] °C; […] at […] °C), […] c-di-GMP:protein stoichiometry. The format is binding.

`Nc1nc2c(ncn2[C@@H]2O[C@@H]3COP(=O)(O)O[C@H]4[C@@H](O)[C@H](n5cnc6c(=O)[nH]c(N)nc65)O[C@@H]4COP(=O)(O)O[C@H]3[C@H]2O)c(=O)[nH]1` [c-di-GMP] gave a dissociation constant (Kd) of 60 nM.

In general, Kd refers to the equilibrium constant for the complex coming apart. Low readings indicate tighter binding, high ones weaker binding.
